This note sets out measurements from PMC8962522, “Direct interaction of TrkA/CD44v3 is essential for NGF-promoted aggressiveness of breast cancer cells” (Journal of Experimental & Clinical Cancer Research : CR, 2022).

In assay [1] the test system is TrkA/CD44v3 complex in HCC-1954 cells. The experiment in a line: PLA TrkA/CD44v3 complex formation in HCC-1954 cells. The settings on record: Her2-like; NGF 100 ng/ml. Type of assay: cell-based. Here is the method:
Cells (10,000 cells per well) were grown on acid-washed eight-well glass slides (Thermo Scientific) in the appropriate medium supplemented with 10% FBS for 24 h. After NGF treatment, paraformaldehyde (PAF)-fixed cells were incubated with 4% bovine serum albumin (BSA) or 5% FBS (for 1 h at 20 °C), followed by overnight incubation with primary antibodies (rabbit anti-TrkA or rabbit anti-IgG + mouse anti-pan-CD44; mouse anti-CD44v3; mouse anti-CD44v6; mouse anti-IgG2a; mouse anti-IgG2b; or mouse anti-IgG1). PLA was performed following the manufacturer’s instructions in the assay kit (Duolink PLA; Sigma–Aldrich). To obtain the correct representation of the PLA signal for each condition, 30 fields per condition were observed using a fluorescence microscope (Eclipse TiU; Nikon, Japan). The PLA signals (red dots) were automatically quantified using ImageJ software (with an in-house-developed plug-in). […]
Fig. 7 The TrkA/CD44v3 complex is formed in PR-negative breast cancer cells and tumors. TrkA/CD44v3 complex formation was measured in SUM159-PT (triple negative—i.e., ERα-, PR-, and Her2-) cells (A), T47-D (luminal A—i.e., ERα+, PR+, and Her2-) cells (B), BT-474 (luminal B—ERα+, PR+, and Her2+) cells (C), HCC-1954 (Her2-like—ERα-, PR-, and Her2+) cells (D), and 150 tumor patient samples obtained from US BioMax (HBre-Duc150Sur01) (E, F) using the proximity ligation assay (PLA). […]

Assay [2] has as its system CD44v3 in MDA-MB-231 cells. The experiment in a line: Immunofluorescence, membrane CD44v3. Type of assay: cell-based. The settings on record: MDA-MB-231, immunofluorescence/confocal, NGF. An excerpt: The CD44v3- and CD44v6-containing isoforms expressing respectively exon 8 and 11(Fig. 1A) can interact with growth factor receptors. Using COS-7 cells with low CD44 and TrkA expression (Supplementary Fig. 1A-D), we differentially expressed TrkA and CD44s or a CD44 variant, either CD44v3 or CD44v6 (Fig. 1B, supplementary Fig. 2). […] Additionally, we evaluated the expression of TrkA and CD44v3 at the membrane level or in cells by immunofluorescence in MDA-MB-231 cells.
Supplementary file 13046_2022_2314_MOESM3_ESM.pdf: Additional file 3: Supplementary Figure 1. Validation of the ectopic expression of CD44 and/or TrkA in COS-7 cells. The expression of all CD44 isoforms (A), CD44 variant 3 (B), CD44 variant 6 (C) and TrkA ([…]; D) was evaluated by RT–qPCR (normalized using PUM-1). No expression of CD44, CD44 variants [3 or 6] or TrkA was detected in COS-7 cells (A-D) compared with that in cells transfected with the expression plasmid carrying each protein. […] Quantification of the PLA results was performed using ImageJ software (30 randomly chosen fields per condition of three different experiments). […] CD44v3 and CD44v6 levels at the plasma membrane were assessed by flow cytometry (A-D). The plasma membrane and total TrkA and CD44v3 levels were also quantified by confocal microscopy (E-H). […] The CD44v3/NGF interaction was evaluated using microscale thermophoresis (MST). […]

Regarding “NGF: recombinant human β-NGF (Alomone Labs, Israel)”, in assay [1], the “effect on TrkA/CD44v3 complex formation (PLA) in HCC-1954 cells” value is “NGF induction of CD44v3/TrkA complex formation was observed in SUM-159PT (TN) and HCC-1954 (Her2) cells”. Besides, in assay [2], the “level of CD44v3 at the membrane (in words)” value is “increased at the membrane until 15 min of NGF treatment and then decreased”.
